Measured values from patent US9029092B2, “Solution phase homogeneous assays” (Beckman Coulter, Inc., priority 2009, dated 2015).

Tested on: biotinylated HRP
Assay: Model system for selection of SSIA (AK1/streptavidin BSA microparticles + biotinylated HRP)
Format: biochemical, horseradish
Conditions: SSIA 100 μM final; for light intensity, BTN-HRP0: Btn-HRP 0 ng/mL; for light intensity, BTN-HRP0 / light intensity, BTN-HRP1 / light intensity, BTN-HRP10 / light intensity, BTN-HRP100 / light intensity, BTN-HRP250: total HRP 500 ng/mL; for S1/S0: Btn-HRP 1 ng/mL vs 0; for light intensity, BTN-HRP1: Btn-HRP 1 ng/mL; for S2/S0: Btn-HRP 10 ng/mL vs 0; for light intensity, BTN-HRP10: Btn-HRP 10 ng/mL; for S3/S0: Btn-HRP 100 ng/mL vs 0; for light intensity, BTN-HRP100: Btn-HRP 100 ng/mL; for S4/S0: Btn-HRP 250 ng/mL vs 0; for light intensity, BTN-HRP250: Btn-HRP 250 ng/mL
Method: The model system uses a microparticle conjugated to BSA (bovine serum albumin) labeled with a […] and acridan ketenedithioacetal chemiluminescent label (AK1) as the chemiluminescent-labeled sbp, and biotinylated HRP as the activator-labeled specific binding pair. In the model system, varying amounts of Btn-HRP is added to the chemiluminescent-labeled specific binding pair at 0, 1, 10, 100 and 250 ng/mL. Additional unlabeled HRP is added to reach a total HRP of concentration of 500 ng/mL in each reaction mixture. The unlabeled HRP in combination with the activator-labeled sbp was provided to the chemiluminescent-labeled sbp microparticles to emulate sample. A compound for assessment as an SSIA was also added. This reaction mixture of the model system is then triggered by addition of trigger solution in a manner of assays of the present disclosure.
To prepare the chemiluminescent-labeled sbp on microparticles, Bovine Serum Albumin (BSA) was biotinylated with 4× molar excess of biotin-LC-sulfoNHS (Pierce Biotechnology Inc., Rockford, Ill., USA). Unbound reactants were removed via desalting or dialysis. The biotin-BSA was then reacted with a 5× molar excess of an NHS ester of acridan ketenedithioacetal AK1 in 20 mM sodium phosphate pH 7.2: DMSO 75:25, v/v) followed by desalting in the same buffer. The dual labeled (biotin and AK1) BSA was then coupled with tosyl activated M280 microparticles (Invitrogen Corporation, Carlsbad, Calif., USA) in a 0.1M borate buffer pH 9.5 at a concentration of about 20 μg of labeled BSA per mg of microparticles for 16-24 h at 40° C. After coupling the microparticles were stripped for 1 h at 40° C. with 0.2 M TRIS base, 2% SDS, pH˜11. The stripping process was repeated one additional time. Microparticles were then suspended in a 0.1% BSA/TRIS buffered saline (BSA/TBS) buffer and streptavidin (SA) was added at approximately 15 μg SA per mg microparticles. Streptavidin was mixed with the microparticles for 45-50 min at room temperature. The microparticles were then washed three times and suspended in the same BSA/TBS.
HRP, (Roche Diagnostics, Indianapolis, Ind., USA) was biotinylated with 4× molar excess of biotin-LC-sulfoNHS (Pierce Biotechnology Inc., Rockford, Ill., USA). Alternatively, 25× molar excess of biotin-PEO4-NHS may be used. Unbound reactants were removed via desalting or dialysis.
Each SSIA compound for assessment was solubilized in Buffer II at a concentration at least 10× of the working strength concentration.
25 μl of 1 mg/ml of dual-labeled (biotin and AK1) BSA M280 particles were mixed with 45 μl of working concentration SSIA in Buffer II. The assay volume brought to 85 μl by adding 15 μl of Buffer II. 15 μl of sample containing Btn-HRP:HRP at different ratios (The amount of biotinylated-HRP varied from 0, 1, 10, 100 and 250 ng/mL) was added. The reaction mixture was incubated for 30 min at 37° C., then 100 μL of trigger solution was added and the light intensity recorded. Total volume of reaction mixture, including trigger solution was 200 μL with a final concentration of 100 μM of SSIA.
The screening tests were performed using a modified DxI® Immunoassay System (Beckman Coulter, Inc. Brea, Calif.) as described above.

Row | SMILES | light intensity, BTN-HRP0 | S1/S0 | light intensity, BTN-HRP1 | S2/S0 | light intensity, BTN-HRP10 | S3/S0 | light intensity, BTN-HRP100 | S4/S0 | light intensity, BTN-HRP250 | effectiveness as SSIA in the model system
1 | O=C(O)CCCC[C@@H]1CCSS1 (racemic) [Lipoic Acid] | 35,016 | 2 | 71,751 | 70.0 | 2,450,949 | 246.9 | 8,647,037 | 252.7 | 8,847,921 | insuffient effectiveness
2 | Oc1ccc(O)c(Cl)c1 [2-chloro-1,4-dihydroxybenzene] | 3,571 | 1.1 | 4,007 | 52.9 | 188,920 | 170.8 | 610,053 | 245.3 | 875,831 | –
3 | Nc1ccc(C(=O)O)cc1O [4-Amino-3-hydroxy-benzoic acid] | 972 | 2.9 | 2,808 | 454.2 | 441,455 | 6076.7 | 5,906,521 | 6587.9 | 6,403,425 | demonstrating utility as SSIA
4 | Cl.Nc1ccc(O)cc1O [4-aminoresorcinol hydrochloride] | 675 | 1.7 | 1,163 | 110.8 | 74,764 | 489.0 | 330,056 | 384.5 | 259,541 | –
5 | Oc1ccc(Cl)cc1O [4-chloro catechol, 4-chlorocatechol] | 93 | 2.2 | 205 | 14.8 | 1,373 | 4910.8 | 456,707 | 13558.5 | 1,260,937 | demonstrating utility as SSIA
6 | CC1(C)OC[C@@H]([C@H]2OC(=O)C(O)=C2O)O1 [5,6iso-propyliene ascorbic acid] | 264 | 3.6 | 961 | 112.3 | 29,645 | 18626.9 | 4,917,499 | 33275 | 8,784,595 | demonstrating utility as SSIA
7 | Cc1c(O)cc2c(c1C)O[C@](C)(CCC[C@H](C)CCC[C@H](C)CCCC(C)C)CC2 [(+)-gamma-Tocopherol] | 6,051 | 1.8 | 10,924 | 278.7 | 1,686,079 | 1437.5 | 8,698,069 | 1699.4 | 10,282,504 | –
8 | CCCCCCCCCCCCCCCC(=O)OC[C@H](O)[C@H]1OC(=O)C(O)=C1O [Ascorbic Acid 6-palmitate] | 81 | 4 | 327 | 502.4 | 40,863 | 100662.3 | 8,187,204 | 125193.6 | 10,182,411 | demonstrating utility as SSIA
9 | N[C@@H](CS)C(=O)O [Cysteine] | 35,695 | 1.6 | 58,203 | 69.6 | 2,483,411 | 256.3 | 9,147,371 | 285.5 | 10,190,505 | insuffient effectiveness
10 | COc1cc(/C=C/C(=O)O)ccc1O [Ferulic acid] | 5,252 | 2.3 | 12,079 | 136.2 | 715,313 | 1672.9 | 8,785,865 | 1950.5 | 10,244,269 | –
11 | COc1ccc2[nH]cc(CCNC(C)=O)c2c1 [Melatonin] | 54,528 | 1.3 | 70,741 | 43.7 | 2,381,361 | 173.7 | 9,471,431 | 190.2 | 10,370,061 | insuffient effectiveness
12 | CC(=O)N[C@@H](CS)C(=O)O [N-Ac-Cysteine, N-acetyl cysteine] | 43,647 | 1.1 | 47,636 | 40.3 | 1,757,607 | 199 | 8,685,795 | 234.2 | 10,219,869 | insuffient effectiveness
13 | O=C(O)c1cccnc1 [Nicotinic Acid] | 34,369 | – | 53,765 | – | 2,228,317 | – | 8,772,523 | – | 9,224,439 | insuffient effectiveness
14 | NNC(=O)c1cccnc1 [Nicotinic Hydrazide] | 42,260 | 1.4 | 58,356 | 49.8 | 2,106,471 | 194.2 | 8,205,320 | 187.5 | 7,923,092 | insuffient effectiveness
15 | Oc1ccc(C=Cc2cc(O)cc(O)c2)cc1 [Resveratrol] | 64,051 | 1.3 | 81,452 | 16.8 | 1,073,968 | 92.8 | 5,944,792 | 102.4 | – | insuffient effectiveness
16 | COc1cc(C(=O)O)cc(OC)c1O [Syringic Acid] | 14,485 | 1.6 | 23,707 | 64.8 | 939,372 | 547.2 | 7,927,096 | 658 | 9,530,979 | –
17 | CC1(C)CC(O)CC(C)(C)N1[O] [TEMPOL] | 22,621 | 1.5 | 33,873 | 86.8 | 1,963,369 | 407.6 | 9,220,799 | 467.6 | 10,578,104 | insuffient effectiveness
